# Data from patent US10227371B2, “Polymorphs and new solid states of tiacumicin B” (XELLIA PHARMACEUTICALS APS, priority 2014, dated 2019).
# Assays:
# Assay type in all cases: physicochemical
# [1] = Stability of high purity amorphous Tiacumicin material on storage (XRPD)
# Experimental: Stoe Stadi P; Mythen1K Detector; Cu-Kα1 radiation; standard measurement conditions: transmission; 40 kV and 40 mA tube power; curved Ge monochromator; 0.02°2θ step size, 12 s step time, 1.5-50.5°2θ scanning range; detector mode: step scan; 1°2θ detector step; standard sample preparation: 10 to 20 mg sample was placed between two acetate foils; sample holder: Stoe transmission sample holder; the sample was rotated during the measurement. Filenames of patterns recorded on this instrument consist of a three-digit number followed by a letter.
# Bruker D8; Copper Ka radiation, 40 kV/40 mA; LynxEye detector, 0.02°2θ step size, 37 s step time.
# The samples were generally measured without any special treatment other than the application of slight pressure to get a flat surface. Silicon single crystal sample holder types: a) standard holder for polymorphism screening, 0.1 mm deep, less than 20 mg sample required; b) 0.5 mm deep, 12 mm cavity diameter for c. 40 mg; c) 1.0 mm deep, 12 mm cavity diameter for c. 80 mg. All samples measured on the Bruker D8 are rotated during the measurement.
# Several samples of high purity amorphous Tiacumicin B material were stored at 40° C./75% relative humidity.
# Several samples of high purity amorphous Tiacumicin B material were stored at room temperature under normal light conditions.
# [2] = Hygroscopicity / water uptake of high purity amorphous Tiacumicin material
# Excerpt: Thus the high purity amorphous Tiacumicin material is relatively stable with respect to crystallization and suitable for long-term storage (e.g storage for 3 months, 6 months, 9 months etc.).
# [3] = XRPD of Tiacumicin solvate forms during storage; conditions: FIG. 8A / FIG. 9A
# Excerpt: FIG. 8A: XRPD of the Tiacumicin solvate form a during storage. FIG. 9A: XRPD of the Tiacumicin solvate form β during storage. The obtained material comprised 16% w/w acetic acid as measured by TG-FTIR. The obtained material comprised 9% w/w isopropylacetate as measured by TG-FTIR.
Structure (SMILES),Suitability for storage (stability with respect to crystallization) ([1]; as demonstrated in example 7),"Solid state by XRPD after storage ([1]; room temperature storage, at 3 months)","Solid state by XRPD after storage ([1]; stored at 40° C./75% relative humidity, XRPDs at start, 24 hours, 7 days and 1 month)","Solid state by XRPD after storage ([1]; stored at room temperature under normal light conditions, XRPDs at start, 1 month and 2 months)",Deliquescence [2],Hygroscopicity (water uptake) ([2]; FIG. 7C),Suitability for storage (XRPD during storage) [3]
CCc1c(Cl)c(O)c(Cl)c(O)c1C(=O)O[C@H]1[C@H](O)[C@H](OC)[C@H](OC/C2=C\C=C\C[C@H](O)/C(C)=C/[C@H](CC)[C@@H](O[C@@H]3OC(C)(C)[C@@H](OC(=O)C(C)C)[C@H](O)[C@@H]3O)/C(C)=C/C(C)=C/C[C@@H]([C@@H](C)O)OC2=O)O[C@@H]1C [Tiacumicin B],suitable for storage,amorphous material,amorphous material,amorphous material,not deliquescent,hygroscopic with near linear water uptake,
"CCc1c(Cl)c(O)c(Cl)c(O)c1C(=O)O[C@H]1[C@H](O)[C@H](OC)[C@H](OC/C2=C\C=C\C[C@H](O)/C(C)=C/[C@H](CC)[C@@H](O[C@@H]3OC(C)(C)[C@@H](OC(=O)C(C)C)[C@H](O)[C@@H]3O)/C(C)=C/C(C)=C/C[C@@H]([C@@H](C)O)OC2=O)O[C@@H]1C [form α of Tiacumicin B, Tiacumicin B]",,,,,,,storage suitable
